Test results published in PubChem BioAssay (NCI).
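96-well plates; 48 h exposure; 5 concentrations. Endpoints by linear interpolation between flanking doses. Not reached: highest tested concentration assigned. Abbreviation: GI50, concentration required for 50% inhibition of growth. Definition used: TGI = concentration required for complete inhibition of growth.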

Tests used:
Test in all cases: NCI tumour cell line growth inhibition, 48 h
HCT-15 colon = tested on: HCT-15 colon
MOLT-4 leukemia = tested on: MOLT-4 leukemia
NCI-H460 lung = tested on: NCI-H460 lung
OVCAR-5 ovarian = tested on: OVCAR-5 ovarian
RPMI-8226 leukemia = tested on: RPMI-8226 leukemia
SK-MEL-2 melanoma = tested on: SK-MEL-2 melanoma
SK-OV-3 ovarian = tested on: SK-OV-3 ovarian
SN12C renal = tested on: SN12C renal
SNB-19 CNS = tested on: SNB-19 CNS
SNB-75 CNS = tested on: SNB-75 CNS

SMILES: COc1ccc(C(=O)C(CN(C)C)c2ccccc2)cc1 (stereo not given)
- GI50 (HCT-15 colon): 1.81 µM
- TGI (HCT-15 colon): 4.73 µM
- GI50 (MOLT-4 leukemia): 4.41 µM
- TGI (MOLT-4 leukemia): > 100 µM
- GI50 (NCI-H460 lung): 6.13 µM
- TGI (NCI-H460 lung): 19.2 µM
- GI50 (OVCAR-5 ovarian): 3.82 µM
- TGI (OVCAR-5 ovarian): 10 µM
- GI50 (RPMI-8226 leukemia): 1.88 µM
- TGI (RPMI-8226 leukemia): > 100 µM
- GI50 (SK-MEL-2 melanoma): 3.09 µM
- TGI (SK-MEL-2 melanoma): 7.97 µM
- GI50 (SK-OV-3 ovarian): 27.7 µM
- TGI (SK-OV-3 ovarian): 77.2 µM
- GI50 (SN12C renal): 3.56 µM
- TGI (SN12C renal): 12.1 µM
- GI50 (SNB-19 CNS): 11.1 µM
- TGI (SNB-19 CNS): 23.1 µM
- GI50 (SNB-75 CNS): 12.8 µM
- TGI (SNB-75 CNS): 27.3 µM

SMILES: COC(=O)C1=C(c2cc(OC)c(OC)c(OC)c2)OC(c2cc(OC)c(OC)c(OC)c2)C1 (stereo not given)
- TGI (HCT-15 colon): > 100 µM
- TGI (MOLT-4 leukemia): 68.5 µM
- TGI (NCI-H460 lung): > 100 µM
- TGI (OVCAR-5 ovarian): > 100 µM
- TGI (RPMI-8226 leukemia): 96.6 µM
- TGI (SK-OV-3 ovarian): 71 µM
- TGI (SN12C renal): 55.1 µM
- TGI (SNB-19 CNS): > 100 µM
- TGI (SNB-75 CNS): 78.1 µM

SMILES: COc1cccc(C2N3CCCCC3[C@@H]3c4[nH]c5ccccc5c4CCN23)c1OC (stereo not given in full)
- TGI (HCT-15 colon): 30.8 µM
- TGI (MOLT-4 leukemia): 36.6 µM
- TGI (NCI-H460 lung): 36.3 µM
- TGI (OVCAR-5 ovarian): 29.4 µM
- TGI (RPMI-8226 leukemia): 42.7 µM
- TGI (SK-MEL-2 melanoma): 29.2 µM
- TGI (SK-OV-3 ovarian): 31.4 µM
- TGI (SN12C renal): 31 µM
- TGI (SNB-19 CNS): 24.3 µM

SMILES: CN1CCN(Cc2ccc(NC(=O)c3cncc(C#Cc4cncc5[nH]ncc45)c3)cc2C(F)(F)F)CC1
- GI50 (HCT-15 colon): 1.69 µM
- TGI (HCT-15 colon): 6.14 µM
- GI50 (MOLT-4 leukemia): 0.773 µM
- TGI (MOLT-4 leukemia): 4.44 µM
- GI50 (NCI-H460 lung): 1.19 µM
- TGI (NCI-H460 lung): 5.6 µM
- GI50 (OVCAR-5 ovarian): 0.601 µM
- TGI (OVCAR-5 ovarian): 5.96 µM
- GI50 (RPMI-8226 leukemia): 0.761 µM
- TGI (RPMI-8226 leukemia): 2.48 µM
- GI50 (SK-MEL-2 melanoma): 0.295 µM
- TGI (SK-MEL-2 melanoma): 1.25 µM
- GI50 (SK-OV-3 ovarian): 1.4 µM
- TGI (SK-OV-3 ovarian): 4.89 µM
- GI50 (SN12C renal): 0.906 µM
- TGI (SN12C renal): 5.73 µM
- GI50 (SNB-19 CNS): 3.81 µM
- TGI (SNB-19 CNS): 9.93 µM
- GI50 (SNB-75 CNS): 0.793 µM
- TGI (SNB-75 CNS): 2.51 µM

SMILES: C/C(CC(=O)Nc1cc(Cl)c(Cl)cc1Cl)=N\NS(=O)(=O)c1ccc(C)cc1
- TGI (MOLT-4 leukemia): > 100 µM
- TGI (NCI-H460 lung): > 100 µM
- TGI (OVCAR-5 ovarian): > 100 µM
- TGI (RPMI-8226 leukemia): 87.2 µM
- TGI (SK-MEL-2 melanoma): 86.8 µM
- TGI (SK-OV-3 ovarian): > 100 µM
- TGI (SNB-75 CNS): > 100 µM

SMILES: N#CSc1cc(-c2nc3ccccc3o2)ccc1N
- GI50 (HCT-15 colon): 23.2 µM
- TGI (HCT-15 colon): > 100 µM
- GI50 (MOLT-4 leukemia): 4.09 µM
- TGI (MOLT-4 leukemia): 22.1 µM
- GI50 (NCI-H460 lung): 24 µM
- TGI (NCI-H460 lung): > 100 µM
- GI50 (OVCAR-5 ovarian): 25.2 µM
- TGI (OVCAR-5 ovarian): 76.6 µM
- GI50 (RPMI-8226 leukemia): 15.9 µM
- TGI (RPMI-8226 leukemia): 53 µM
- GI50 (SK-MEL-2 melanoma): 40.7 µM
- TGI (SK-MEL-2 melanoma): > 74.3 µM
- GI50 (SK-OV-3 ovarian): 76.5 µM
- TGI (SK-OV-3 ovarian): > 100 µM
- GI50 (SN12C renal): 15.8 µM
- TGI (SN12C renal): 43.1 µM
- GI50 (SNB-19 CNS): 59.7 µM
- TGI (SNB-19 CNS): > 100 µM
- GI50 (SNB-75 CNS): 1.83 µM
- TGI (SNB-75 CNS): > 20.7 µM

SMILES: CCOC(=O)CCC(NC(=O)c1ccc(Nc2nc3cc(N)cc(N)c3nc2-c2ccccc2)cc1)C(=O)OCC (stereo not given)
- GI50 (HCT-15 colon): > 48.1 µM
- TGI (HCT-15 colon): > 100 µM
- GI50 (MOLT-4 leukemia): 9.9 µM
- TGI (MOLT-4 leukemia): > 27.2 µM
- GI50 (NCI-H460 lung): > 29.3 µM
- TGI (NCI-H460 lung): > 69.3 µM
- GI50 (OVCAR-5 ovarian): 57.1 µM
- TGI (OVCAR-5 ovarian): > 93.2 µM
- GI50 (RPMI-8226 leukemia): 6.43 µM
- TGI (RPMI-8226 leukemia): > 59.3 µM
- GI50 (SK-MEL-2 melanoma): 16.5 µM
- TGI (SK-MEL-2 melanoma): > 86 µM
- GI50 (SK-OV-3 ovarian): 22 µM
- TGI (SK-OV-3 ovarian): 47.7 µM
- GI50 (SN12C renal): 26.2 µM
- TGI (SN12C renal): 58.1 µM
- GI50 (SNB-19 CNS): > 46.4 µM
- TGI (SNB-19 CNS): > 100 µM
- GI50 (SNB-75 CNS): > 100 µM
- TGI (SNB-75 CNS): > 100 µM
